The results in this text go back to patent US11186588B2 (AYUMI PHARMACEUTICAL CORPORATION, priority 2017, dated 2021).

The structures appear in SMILES notation. pIC50: −log10 of the molar value.

For assay [1], the target named is Recombinant BRD4 (44-168) protein (Homo sapiens (Human), UniProt O60885). Put plainly: BRD4-H4KAc4 binding assay (amplified luminescence proximity homogeneous assay, AlphaScreen). The following applies: 10 uM. The method in brief: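 His/FLAG-tagged BRD4 (44-168) and biotinylated tetra-acetylated H4 peptide, each added as 250 nM solutions, incubated with compound 60 min at room temperature in the dark, then AlphaScreen beads 60 min. Emission 520-620 nm at 680 nm excitation, duplicates; % inhibition from blank- and DMSO-corrected signal.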
On the technique in general: Alpha assays give light when donor and acceptor beads are brought close together.

Assay [2] has as its system NF-κB. As to the kind of experiment: NF-κB reporter gene assay (TNF-α stimulated A549/NF-κB-luc cells). Format: cell-based. The following applies: Homo sapiens, TNF-α stimulation. The essentials:
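A549 cells stably carrying an NF-κB luciferase reporter were preincubated with compound for 1 h, then stimulated with TNF-α for 3 h. Luminescence was read with Steady-Glo, and inhibition was scaled between blank and DMSO control wells. IC50 was obtained by curve fitting.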
Background: A reporter such as luciferase makes a cellular process visible.

In assay [3] the test system is IL-6 production. As to the kind of experiment: LPS-induced IL-6 production model test. The class given is in vivo, C57BL/6J mice. The following applies: Mus musculus, 1 h; 10 mg/kg oral, 30 min before LPS 1 mg/kg i.p., serum IL-6 60 min after LPS, mice. The protocol: In order to evaluate the inhibitory activity of inflammatory cytokine production in the present compounds, LPS-induced IL-6 production model evaluation was carried out. The specific method is described below.
An appropriate amount of each compound was weighed, triturated with an agate mortar, and suspended or dissolved in 1% methyl cellulose solution to prepare 1 mg/mL solution.
C57BL/6J mice (male, Purchaser: Charles River Laboratories Japan, Inc.) were weighted, before divided into normal group, control group and each compound-administered group based on the measured body weight using a random number, wherein each group contained 6 samples. The mice were manually held in hands and forced orally administered the 1% methyl cellulose solution (normal and control group) or each administration solution comprising the compound (each compound-administered group) at a dose of 10 mL/kg into stomach using a feeding needle. After 30 minutes from administration of the 1% methyl cellulose solution or each compound administration solution, the mice were manually held in hands and intraperitoneally administered physiological saline (normal group) or LPS solution (control and each compound-administered group) at a dose of 1 mg/kg. After 60 minutes from administration of the LPS solution, whole blood was collected from the abdominal vena cava of each mouse under isoflurane inhalation anesthesia (available from Mylan Seiyaku Ltd.), and the mice were euthanized. The collected blood was allowed to stand at room temperature for one hour, and then centrifuged at 1,500 G for 10 minutes to collect a serum (supernatant). The collected serum was stored in a deep freezer set at −80° C. until the measurement of IL-6 in the serum. The IL-6 concentration in the serum of each mouse was measured by a commercially available kit (available from R&D systems, Cat No. M6000B), according to the protocol attached thereto.
The IL-6 production inhibition rate (%) was calculated by the following equation using Microsoft EXCEL 2010. IL-6 production inhibition rate (%)=100−{(average value of IL-6 concentration in serum of each compound-administered group)−(average value of IL-6 concentration in serum of normal group))/(average value of IL-6 concentration in serum of control group)−(average value of IL-6 concentration in serum of normal group)}×100

With `Cc1sc2c(c1C)C(c1ccc(Cl)cc1)=NN(Cc1ccccn1)c1nnc(C)n1-2` [Example 5, 4-(4-chlorophenyl)-2,3,9-trimethyl-6-(pyridin-2-ylmethyl)-6H-thieno[2,3-e][1,2,4]triazolo[3,4-c][1,2,4]triazepine], the inhibition at 10 µM in assay [1] is 100%. This compound had a pIC50 in assay [2] of 7.56. This compound also returned an inhibition in vivo at 10 mg/kg in assay [3] of 77.5%.
The like results for `Cc1sc2c(c1C)C(c1ccc(Cl)cc1)=NN(Cc1cccnc1F)c1nnc(C)n1-2` [Example 25, 4-(4-chlorophenyl)-6-((2-fluoropyridin-3-yl)methyl)-2,3,9-trimethyl-6H-thieno[2,3-e][1,2,4]triazolo[3,4-c][1,2,4]triazepine] were, in that order, 100%, 7.30 and 26.3%.
`Cc1sc2c(c1C)C(c1ccccc1)=NN(Cc1ccccn1)c1nnc(C)n1-2` [Example 31, 2,3,9-trimethyl-4-phenyl-6-(pyridin-2-ylmethyl)-6H-thieno[2,3-e][1,2,4]triazolo[3,4-c][1,2,4]triazepine]: in assay [1], the inhibition at 10 µM was 97.8%. Besides, the pIC50 in assay [2] is 6.82. For the same compound, 10 mg/kg produced 57.5% inhibition in vivo in assay [3].
The like results for `Cc1sc2c(c1C)C(c1ccc(Cl)cc1)=NN(Cc1cccnc1Cl)c1nnc(C)n1-2` [Example 38, 4-(4-chlorophenyl)-6-((2-chloropyridin-3-yl)methyl)-2,3,9-trimethyl-6H-thieno[2,3-e][1,2,4]triazolo[3,4-c][1,2,4]triazepine] were, in that order, 100%, 6.97 and 20.2%.
Regarding `CC(=O)Nc1ccc(C2=NN(Cc3cccnc3)c3nnc(C)n3-c3sc(C)c(C)c32)cc1` [Example 71, N-(4-(2,3,9-trimethyl-6-(pyridin-3-ylmethyl)-6H-thieno[2,3-e][1,2,4]triazolo[3,4-c][1,2,4]triazepin-4-yl)phenyl)acetamide], the inhibition at 10 µM in assay [1] came to 100%. The compound further had a pIC50 in assay [2] of 6.20. The same compound displayed an inhibition in vivo at 10 mg/kg in assay [3] of 79%.

As a reminder, the inhibition is the relative decrease from the control value, in per cent. What is called pIC50 is −log10 of the IC50, conventionally taken in molar units. High values mean a low IC50, low ones a high IC50. The term inhibition in vivo denotes the share of the control response that was lost under treatment.
